Source: PubChem BioAssay AID2060898 (Molecular Pharmacology Branch, DTP, NCI, 2025)

Tested on: 616215-338-R-J1-PDC complex spheroid viability
Assay: Anticancer human tumor 616215-338-R-J1-PDC patient-derived colon adenocarcinoma cell line growth inhibition [RAS]
Settings: for IC50: curve of first compound; for viability, T/C: stronger effect = lower value
Procedure, shortened: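 Tumour cells grown as complex spheroids with HUVEC endothelial cells and mesenchymal stem cells, treated with RAS pathway inhibitor combinations. Each agent spans half-log steps from near clinical Cmax, or 10 microM where Cmax is unknown.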
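Further: spheroids exposed to agents for seven days before viability readout.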
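Wherever viability, T/C is given: 100% = DMSO vehicle control viability.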

**Q.** For `CC1(C)CCC(Nc2ncc(C(F)(F)F)c(-c3c[nH]c4c(P(C)(C)=O)c(C#N)ccc34)n2)CN1` (configuration not stated) + C=CC(=O)N1CCN(c2nc(OCC3CCCN3C)nc3c(F)c(-c4nc(N)cc(C)c4C(F)(F)F)c(Cl)cc23)C(C)C1, which IC50 (second compound 0.00316 µM) is on record?
**A.** The IC50 was 12.8 nM.

**Q.** What about the IC50 (second compound 0.01 µM) of the same compound?
**A.** The IC50 was 11.8 nM.

**Q.** And the IC50 (second compound 0.0316 µM)?
**A.** The IC50 was 15.1 nM.

**Q.** And the IC50 (second compound 0.1 µM)?
**A.** The IC50 was 16.1 nM.

**Q.** What about the IC50 (second compound 0.316 µM) of the same compound?
**A.** Its IC50 is 16.1 nM.

**Q.** And the IC50 (second compound 1 µM)?
**A.** Its IC50 is 8.99 nM.

**Q.** And the viability, T/C (second compound 0.00316 µM, first compound 0.000949 µM)?
**A.** Its viability, T/C is 103%.

**Q.** What about the viability, T/C (second compound 0.00316 µM, first compound 0.003 µM) of the same compound?
**A.** Its viability, T/C is 102%.

**Q.** And the viability, T/C (second compound 0.00316 µM, first compound 0.00949 µM)?
**A.** The viability, T/C was 56.7%.

**Q.** And the viability, T/C (second compound 0.00316 µM, first compound 0.03 µM)?
**A.** The viability, T/C was 33.5%.

**Q.** And the viability, T/C (second compound 0.00316 µM, first compound 0.0949 µM)?
**A.** Its viability, T/C is 25.2%.

**Q.** What about the viability, T/C (second compound 0.00316 µM, first compound 0.3 µM) of the same compound?
**A.** Its viability, T/C is 28.3%.

**Q.** And the viability, T/C (second compound 0.01 µM, first compound 0.000949 µM)?
**A.** The viability, T/C was 109%.

**Q.** What about the viability, T/C (second compound 0.01 µM, first compound 0.003 µM) of the same compound?
**A.** Its viability, T/C is 97.8%.

**Q.** And the viability, T/C (second compound 0.01 µM, first compound 0.00949 µM)?
**A.** The viability, T/C was 54%.

**Q.** What about the viability, T/C (second compound 0.01 µM, first compound 0.03 µM) of the same compound?
**A.** The viability, T/C was 32%.

**Q.** What about the viability, T/C (second compound 0.01 µM, first compound 0.0949 µM) of the same compound?
**A.** The viability, T/C was 30.2%.

**Q.** What about the viability, T/C (second compound 0.01 µM, first compound 0.3 µM) of the same compound?
**A.** The viability, T/C was 25.7%.

**Q.** And the viability, T/C (second compound 0.0316 µM, first compound 0.000949 µM)?
**A.** Its viability, T/C is 103%.

**Q.** And the viability, T/C (second compound 0.0316 µM, first compound 0.003 µM)?
**A.** Its viability, T/C is 108%.

**Q.** What about the viability, T/C (second compound 0.0316 µM, first compound 0.00949 µM) of the same compound?
**A.** The viability, T/C was 62.3%.

**Q.** And the viability, T/C (second compound 0.0316 µM, first compound 0.03 µM)?
**A.** Its viability, T/C is 35.4%.

**Q.** What about the viability, T/C (second compound 0.0316 µM, first compound 0.0949 µM) of the same compound?
**A.** The viability, T/C was 29.2%.

**Q.** What about the viability, T/C (second compound 0.0316 µM, first compound 0.3 µM) of the same compound?
**A.** Its viability, T/C is 31%.

**Q.** What about the viability, T/C (second compound 0.1 µM, first compound 0.000949 µM) of the same compound?
**A.** The viability, T/C was 106%.

**Q.** What about the viability, T/C (second compound 0.1 µM, first compound 0.003 µM) of the same compound?
**A.** Its viability, T/C is 101%.

**Q.** What about the viability, T/C (second compound 0.1 µM, first compound 0.00949 µM) of the same compound?
**A.** Its viability, T/C is 64%.

**Q.** What about the viability, T/C (second compound 0.1 µM, first compound 0.03 µM) of the same compound?
**A.** Its viability, T/C is 33.8%.

**Q.** And the viability, T/C (second compound 0.1 µM, first compound 0.0949 µM)?
**A.** Its viability, T/C is 27.8%.

**Q.** And the viability, T/C (second compound 0.1 µM, first compound 0.3 µM)?
**A.** Its viability, T/C is 27.6%.

**Q.** What about the viability, T/C (second compound 0.316 µM, first compound 0.000949 µM) of the same compound?
**A.** The viability, T/C was 102%.

**Q.** What about the viability, T/C (second compound 0.316 µM, first compound 0.003 µM) of the same compound?
**A.** Its viability, T/C is 97.3%.

**Q.** And the viability, T/C (second compound 0.316 µM, first compound 0.00949 µM)?
**A.** Its viability, T/C is 61.9%.

**Q.** And the viability, T/C (second compound 0.316 µM, first compound 0.03 µM)?
**A.** Its viability, T/C is 36.6%.

**Q.** And the viability, T/C (second compound 0.316 µM, first compound 0.0949 µM)?
**A.** The viability, T/C was 29.1%.

**Q.** And the viability, T/C (second compound 0.316 µM, first compound 0.3 µM)?
**A.** Its viability, T/C is 28.7%.

**Q.** And the viability, T/C (second compound 1 µM, first compound 0.000949 µM)?
**A.** Its viability, T/C is 99.7%.

**Q.** And the viability, T/C (second compound 1 µM, first compound 0.003 µM)?
**A.** Its viability, T/C is 94.1%.

**Q.** What about the viability, T/C (second compound 1 µM, first compound 0.00949 µM) of the same compound?
**A.** Its viability, T/C is 47.7%.

**Q.** What about the viability, T/C (second compound 1 µM, first compound 0.03 µM) of the same compound?
**A.** The viability, T/C was 33.8%.

**Q.** What about the viability, T/C (second compound 1 µM, first compound 0.0949 µM) of the same compound?
**A.** Its viability, T/C is 34.7%.

**Q.** And the viability, T/C (second compound 1 µM, first compound 0.3 µM)?
**A.** The viability, T/C was 28.4%.
